The values below come from patent publication US8158647B2, “Substituted pyrrolopyridines and pyrazolopyridines as kinase modulators” (SGX Pharmaceuticals, Inc., priority 2007, dated 2012).

One assay has as its target T1, ABL P210WT BAF3 cells (Homo sapiens, UniProt P00519).
T1 construct: ABL P210WT BAF3; fused on or other part: P11274 (Breakpoint cluster region protein)
Kind of assay: 96-well XTT cell survival assay, BaF3 ABL P210WT. In kind it is cell-based. Particulars: ABL P210 WT, 72 hours, read-out: CELL BIO ABL P210WT BAF3 XTT (IC50). The protocol:
(§1) MV4-11 and THP cells were maintained in Iscove's Modified Dulbecco's Medium supplemented with 10% fetal bovine serum (FBS) and penicillin/streptomycin, Ba/F3 cells were maintained in RPMI 1640 supplemented with 10% FBS, penicillin/streptomycin and 5 ng/ml recombinant mouse IL-3.
(§2) Compounds were tested in the following assays in duplicate.
(§3) 96-well XTT assay: Cells (e.g. BaF3 315I, M3511, or E255K cells) were grown in growth media containing various concentrations of compounds (duplicates) on a 96-well plate for 72 hours at 37° C. The starting cell number was 5000-8000 cells per well and volume was 120 μl. At the end of the 72-hour incubation, 40 μl of XTT labeling mixture (50:1 solution of sodium 3′-[1-(phenylamino-carbonyl)-3,4-tetrazolium]-bis(4-methoxy-6-nitro) benzene sulfonic acid hydrate and Electron-coupling reagent: PMS (N-methyl dibenzopyrazine methyl sulfate) were added to each well of the plate. After an additional 2-6 hours of incubation at 37° C., the absorbance reading at 405 nm with background correction at 650 nm was measured with a spectrophotometer.

Another assay has as its target T2, ABL T315I BAF3 cells (Homo sapiens, UniProt P00519, T315I, cells depend on it).
T2 construct: ABL T315I BAF3; fused on or other part: P11274 (Breakpoint cluster region protein)
Kind of assay: 96-well XTT cell survival assay, BaF3 ABL T315I. In kind it is cell-based. Particulars: 72 hours, read-out: CELL BIO ABL T315I BAF3 XTT (IC50). The protocol:
as §1, §2, §3

Assay [1] deals with T3, purified and unphosphorylated T315I Abl kinase domain (ABL_T315I_0P) (Mus musculus, UniProt P00520, T315I).
T3 construct: The c-Abl T3151 KD (kinase domain) was purified as follows; Met-Ser-Leu (vector-derived residues) (N); made in house; host or cells: E. coli BL21(DE3) strains (Codon+RIL, or pSA0145 for the lambda phosphatase co-expression plasmid)
T3 sequence (P00520 242-493 T315I limits assumed): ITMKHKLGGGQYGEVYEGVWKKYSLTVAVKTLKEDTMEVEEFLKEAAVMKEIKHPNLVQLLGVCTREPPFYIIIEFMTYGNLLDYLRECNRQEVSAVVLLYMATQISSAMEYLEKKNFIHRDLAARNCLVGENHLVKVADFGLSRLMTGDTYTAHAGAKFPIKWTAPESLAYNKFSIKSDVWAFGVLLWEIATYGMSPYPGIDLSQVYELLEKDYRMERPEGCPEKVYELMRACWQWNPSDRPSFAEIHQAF
Kind of assay: c-Abl T315I (unphosphorylated kinase domain) pyruvate kinase/lactate dehydrogenase coupled enzyme assay. In kind it is biochemical. Particulars: 10 μM ATP. The source says: Although the first of these examples uses the kinase domain of a mutant form of Abl T315I (“Abl T315I KD”), the kinase assays may use various forms of mutant and wild type enzymes, including, for example, the entire protein, the kinase domain, or a portion thereof (e.g. Abl Y393F). The kinases used in the assays may also be of varying phosphorylation states. In the c-Abl example, a mutant kinase at a zero phosphorylation state was used.
c-Abl Pyruvate Kinase/Lactate Dehydrogenase Coupled Enzyme Assay
In the c-Abl Pyruvate Kinase (PK)/Lactate Dehydrogenase (LDH) Coupled Assay the protein kinase dependant phosphorylation of a substrate peptide was coupled to the oxidation of NADH. The oxidation of NADH to NAD+ was detected by monitoring a decrease in absorbance at 340 nm.
Materials: Abl substrate peptide=EAIYAAPFAKKK-OH (SEQ ID NO: 1) (Biopeptide, San Diego, Calif.); […]NADH (Sigma Cat#N-8129, FW=709.4); 2M MgCl2; 1M HEPES buffer, pH 7.5; Phosphoenolpyruvate (PEP) (Sigma Cat#P-7002, FW=234); Lactate dehydrogenase (LDH) (Worthington Biochemical Cat#2756); Pyruvate Kinase (PK) (Sigma Cat#P-9136); ATP (Sigma Cat#A-3377, FW=551); Greiner 384-well UV star plate; and purified and unphosphorylated T3151 Abl kinase domain.
Stock Solutions: 10 mM NADH (7.09 mg/ml in miliQH2O) made fresh daily; 10 mM Abl substrate peptide (13.4 mg/ml in miliQH2O) stored at −20° C.; 100 mM HEPES buffer, pH 7.5 (5 ml 1M stock+45 ml miliQH2O); 100mM MgCl2 (5 ml 2M MgCl2+95 ml dH2O); 100 mM PEP (23.4 mg/ml in dH2O) stored at −20° C.; 10mM ATP (5.51 mg/ml in dH2O) stored at −20° C. (diluted 50 μl into total of 10 ml miliQH2O daily=50 μM ATP working stock); 1000 U/ml PK (U/mg varies with lot) flash-frozen under liquid N2 and stored at −80° C.; and 1000 U/ml LDH (U/mg varies with lot) flash-frozen under liquid N2 and stored at −80° C.
Standard Assay Setup for 384-well format (50 μl reaction): 300 μM NADH; 10 mM MgCl2; 2 mM PEP; 45 U/ml PK; 60 U/ml LDH; 200 μM Abl substrate peptide; 2.5 μl test compound (in DMSO); 2 μg/ml Abl kinase domain; 10 μM ATP; 100 mM HEPES buffer. Positive controls contained DMSO with no test compound. Negative controls contained 5 μl of 0.5M EDTA (50 mM in the assay). The dephosphorylated form of the c-Abl T315I mutant was used in the biochemical screening assays. The kinase reaction was initiated at time t=0 by the addition of ATP.
Activity was measured by following the time-dependent loss of NADH by absorbance spectroscopy at 340 nm. The linear portion of the resulting progress curve was then analyzed by linear regression to get the activity in absorbance units/time, reported as the slope of that best fit line (moles/unit time can be calculated from using molar extinction coefficient for NADH at 340 nm, 6250M^−1 cm^−1).
Screening data was evaluated using the equation: Z′=1-[3*(σ++σ−)/|μ+−μ−|] (Zhang, et al., 1999 J Biomol Screening 4(2) 67-73), where μ denotes the mean and σ the standard deviation. The subscript designates positive or negative controls. The Z′ score for a robust screening assay should be ≧0.50. The typical threshold=μ+−3*σ+−. Any value that falls below the threshold was designated a “hit”.
Dose response was analyzed using the equation: y=min+{(max−min)/(1+10^[compound]−logIC50)}, where y is the observed initial slope, max=the slope in the absence of inhibitor, min=the slope at infinite inhibitor, and the IC50 is the [compound] that corresponds to ½ the total observed amplitude (Amplitude=max−min).
To measure modulation, activation, or inhibition of Abl KD, a test compound was added to the assay at a range of concentrations. Inhibitors may inhibit Abl KD activity at an IC50 in the micromolar range, the nanomolar range, or, for example, in the subnanomolar range.
An open-reading frame for c-Abl was amplified from a Mus musculus (mouse) cDNA library prepared from freshly harvested mouse liver using a commercially available kit (Invitrogen) by PCR using the following primers: […]
The c-Abl T3151 KD (kinase domain) was purified as follows. […]

Structures are written as SMILES.

Consider `CN(C)C(=O)C(O)c1cncc(-c2cnc3[nH]cc(-c4ccccc4F)c3c2Cl)c1` (stereo not drawn) [2-{5-[4-Chloro-3-(2-fluoro-phenyl)-1H-pyrrolo[2,3-b]pyridin-5-yl]-pyridin-3-yl}-2-hydroxy-N,N-dimethyl-acetamide], for which the GI50 at ABL P210WT BAF3 cells and on ABL T315I BAF3 cells was 100 to 1000 nM each time. In addition, in assay [1], the “ABL_T315I_0P (IC50)” value is listed as “D (<0.01 μM)”.
Regarding `OC(c1cccc(-c2cnc3[nH]cc(-c4ccccc4F)c3c2Cl)c1)c1ncco1` (stereo not drawn) [{3-[4-Chloro-3-(2-fluoro-phenyl)-1H-pyrrolo[2,3-b]pyridin-5-yl]-phenyl}-oxazol-2-yl-methanol], the GI50 at ABL P210WT BAF3 cells and on ABL T315I BAF3 cells was more than 1000 nM each time. Further, the “ABL_T315I_0P (IC50)” value in assay [1] is given as “D (<0.01 μM)”.
Take `COc1ccc(C(F)(F)F)cc1-c1c[nH]c2ncc(-c3cnc(N)c(C(=O)N(C)C)c3)c(Cl)c12` [2-Amino-5-[4-chloro-3-(2-methoxy-5-trifluoromethyl-phenyl)-1H-pyrrolo[2,3-b]pyridin-5-yl]-N,N-dimethyl-nicotinamide]: the GI50 at ABL P210WT BAF3 cells and on ABL T315I BAF3 cells was 100 to 1000 nM throughout. Moreover, in assay [1], the “ABL_T315I_0P (IC50)” value is listed as “D (<0.01 μM)”.
Consider `CN(C)C(=O)C(O)c1cc(-c2cnc3[nH]cc(-c4ccccc4F)c3c2Cl)cnc1N` (stereo not drawn), for which the GI50 was 100 to 1000 nM on ABL P210WT BAF3 cells and 10 to 100 nM on ABL T315I BAF3 cells. In assay [1], the “ABL_T315I_0P (IC50)” value is on record as “D (<0.01 μM)”.
For `CCN(C)C(=O)c1cc(-c2cnc3[nH]cc(-c4cccc(F)c4)c3c2Cl)cnc1N` [2-Amino-5-[4-chloro-3-(3-fluoro-phenyl)-1H-pyrrolo[2,3-b]pyridin-5-yl]-N-ethyl-N-methyl-nicotinamide], in that order: 10 to 100 nM, 10 to 100 nM and “D (<0.01 μM)”.
For `CN(C)C1CCN(C(=O)c2cc(-c3cnc4[nH]cc(-c5cccc(F)c5)c4c3Cl)cnc2N)C1` (stereo not drawn) [{2-Amino-5-[4-chloro-3-(3-fluoro-phenyl)-1H-pyrrolo[2,3-b]pyridin-5-yl]-pyridin-3-yl}-(3-dimethylamino-pyrrolidin-1-yl)-methanone], in that order: 100 to 1000 nM, 100 to 1000 nM and “D (<0.01 μM)”.
For `CN(C)C(=O)Cc1cncc(-c2cnc3[nH]cc(-c4cccc(F)c4F)c3c2Cl)c1` [2-{5-[4-Chloro-3-(2,3-difluoro-phenyl)-1H-pyrrolo[2,3-b]pyridin-5-yl]-pyridin-3-yl}-N,N-dimethyl-acetamide], in that order: 100 to 1000 nM, 100 to 1000 nM and “D (<0.01 μM)”.
On to `COc1ccccc1-c1c[nH]c2ncc(-c3cncc(C(O)C(=O)N(C)C)c3)c(OC)c12` (stereo not drawn) [2-Hydroxy-2-{5-[4-methoxy-3-(2-methoxy-phenyl)-1H-pyrrolo[2,3-b]pyridin-5-yl]-pyridin-3-yl}-N,N-dimethyl-acetamide], for which the GI50 on ABL P210WT BAF3 cells and at ABL T315I BAF3 cells was 10 to 100 nM in each case. Further, in assay [1], the “ABL_T315I_0P (IC50)” value is “D (<0.01 μM)”.
For `CN(C)C(=O)c1cncc(-c2cnc3[nH]cc(-c4ccccc4Cl)c3c2Cl)c1` [5-[4-Chloro-3-(2-chloro-phenyl)-1H-pyrrolo[2,3-b]pyridin-5-yl]-N,N-dimethyl-nicotinamide], the GI50 on ABL P210WT BAF3 cells is 100 to 1000 nM; at ABL T315I BAF3 cells, more than 1000 nM. Also, the “ABL_T315I_0P (IC50)” value in assay [1] is given as “D (<0.01 μM)”.
For `COc1ccccc1-c1c[nH]c2ncc(-c3cncc(C(O)C(=O)N(C)C)c3)c(N)c12` (stereo not drawn) [2-{5-[4-Amino-3-(2-methoxy-phenyl)-1H-pyrrolo[2,3-b]pyridin-5-yl]-pyridin-3-yl}-2-hydroxy-N,N-dimethyl-acetamide], in that order: 100 to 1000 nM, 100 to 1000 nM and “D (<0.01 μM)”.
For `COc1ccccc1-c1c[nH]c2ncc(-c3cccc(C(=O)N(C)C)c3)c(Cl)c12` [3-[4-Chloro-3-(2-methoxy-phenyl)-1H-pyrrolo[2,3-b]pyridin-5-yl]-N,N-dimethyl-benzamide], in that order: 10 to 100 nM, 10 to 100 nM and “D (<0.01 μM)”.
